Entries after “also recorded” stand apart in the source; their conditions may differ.
Experiments:
[1] = tested on: primary rat cortical neurons; experiment: Neuron survival and neurite network after glutamate injury, MAP-2 immunostaining
[2] = tested on: primary motor neuron culture from rat spinal cord; experiment: Motor neuron survival after glutamate exposure (in vitro ALS model), MAP-2 immunostaining; format: cell-based; settings: for protective effect on motor neurons: 1 pM to 10 μM
Experimental: The aim of this study was to study the effect of CR777B on primary motor neuron culture from rat spinal cord (SC) injured by glutamate exposure (a well validated in vitro ALS model and model of motor neuron diseases).
Rat SC motor neurons were cultured as described by Martinou et al., Neuron. […] Briefly, pregnant female rats (Wistar, Janvier labs) of 14 days gestation were killed by cervical dislocation. […] The medium was changed every day.
For each condition, 6 wells were assessed, 30 pictures per well were taken using ImageXpress (Molecular Devices) with 20× magnification, to assess motor neuron survival (MAP-2). Analysis of picture was done using Custom Module Editor (Molecular Devices). Results were expressed in terms of mean survival neuron, labeled for MAP-2. Data were expressed in percentage of control conditions (no intoxication, no glutamate=100%) in order to express the glutamate injury. All values were expressed as mean+/−SEM (s.e.mean) of the culture (n=6 wells per condition per culture). Graphs and statistical analyses are made on the different conditions (ANOVA followed by PLSD Fisher's test when allowed, using Statview software version 5.0).

[3] = tested on: primary cocultures of central neurons and oligodendrocytes; experiment: In vitro myelination (MS) model, A2B5 and MAG immunostaining; format: cell-based, rat; settings: for conclusion: effect on OPC and OL: 1 pmol/L to 10 μmol/L
Experimental: A reproducible in vitro myelination model based on primary cocultures of central neurons and oligodendrocytes culturing in 96-well plate is used and adapted to high throughput screening.
Neurons/oligodendrocytes were cultured as previously described by Charles et al., 2000. PNAS 97 7585-7590.
Briefly, pregnant Wistar female rats of 17 days gestation were killed by cervical dislocation (Janvier Labs, France) and the foetuses removed from the uterus. The forebrains were removed and placed in ice-cold medium of Leibovitz (L15; Pan Biotech, Germany) containing 2% of Penicillin-Streptomycin (Batch 1451013, PanBiotech) and 1% of bovine serum albumin (BSA) (Batch K180713, Pan Biotech). Cortexes were dissociated by trypsinisation for 20 min at 37° C., with Trypsin EDTA 1× (Batch 7310713, PanBiotech). The reaction was stopped by the addition of Dulbecco's modified Eagle's medium (DMEM) (Batch 9710913, PanBiotech) containing DNAase I grade II at 0.1 mg/mL (Batch H131108, PanBiotech) and 10% of foetal calf serum (Batch 41Q7218K, Invitrogen, France). Cells were then mechanically dissociated by 3 passages through a 10 mL pipette. Cells were centrifuged at 180×g for 10 min at 4° C. temperature on a layer of BSA (3.5%) in L15 medium. The supernatant was discarded and cells of the pellet were re-suspended in DMEM containing 10% of FCS. […] The supernatant was discarded and cells of pellet were re-suspended in a culture medium consisting of Neurobasal (Batch 1625353, Invitrogen) supplemented with 2% of B27 (Batch 1618508, Invitrogen), 2 mM of L-glutamine (Batch 6620314, PanBiotech), 2% of PS solution, 1% of foetal calf serum (FCS) and 10 ng/mL of platelet-derived growth factor (PDGF-AA) (Batch H131205, PanBiotech).
The plates were maintained at 37° C. in a humidified incubator, in an atmosphere of air (95%)-CO2 (5%). Half of the medium was changed every 2 days with fresh medium in presence or absence of compound.
The cells were then permeabilized and non-specific sites were blocked with a solution of phosphate buffered saline (Batch 3010914, PanBiotech) containing 0.1% of saponin (Batch BCBJ8417V, Sigma) and 1% FCS for 15 min at room temperature.
On day 12, cells were incubated with Monoclonal Anti-A2B5 conjugated Alexa Fluor® 488 produced in mouse (Batch 2281669, Millipore, France) at dilution of 1/200 in PBS containing 1% FCS, 0.1% saponin, and with anti-MAP-2 antibody produced in chicken (Batch GR180541-3, AbCam; United Kingdom) at dilution of 1/1000 in PBS containing 1% FCS, 0.1% saponin for 2 h at room temperature.
On day 18, cells were incubated with Monoclonal Anti-MAG antibody produced in mouse (Batch 2301638, Millipore) at dilution of 1/400 in PBS containing 1% FCS, 0.1% saponin, and with anti-MAP-2 antibody produced in chicken at dilution of 1/1000 in PBS containing 1% FCS, 0.1% saponin for 2 h at room temperature.
The immunolabeled cultures were automatically examined with ImageXpress (Molecular Devices) equipped with a LED at ×20 magnification. For each condition, 30 pictures (representing ˜80% of the total surface of the well) per well were taken. All images were taken with the same conditions. Number of A2B5 positive cells and number of MAG positive cells were automatically analyzed by using Custom module editor (Molecular Devices). Data were expressed in percentage of control conditions (no plant extract=100%). All values were expressed as mean+/−SEM (s.e.mean) of the 6 wells. Graphs and statistical analyses are made on the different conditions (ANOVA followed by Dunnett's test when allowed, using GraphPad Prism software).

[4] = tested on: primary rat dopaminergic neurons (TH positive neurons); experiment: Neuroprotection after MPP+ exposure, TH immunostaining; format: cell-based; settings: for neuroprotective effect on TH positive neurons: 1 pmol/L to 10 μmol/L
Experimental: This study investigated the neuroprotective effect of the Compound CR777B of example 1 on rat primary mesencephalic cultures following exposure to 1-methyl-4-phenyl pyridinium (MPP^+).
Rat dopaminergic neurons were cultured as described by Visanji et al., 2008 FASEB J. 2008; 22(7):2488-97. Briefly, the midbrains obtained from 15-day old rat embryos (Janvier Labs, France) were dissected under a microscope. The embryonic midbrains were removed and placed in ice-cold medium of Leibovitz (L15, Batch 4290114, Pan Biotech, Germany) containing 2% of Penicillin-Streptomycin (PS, Batch 1451013, Pan Biotech) and 1% of bovine serum albumin (BSA, Batch K030913, Pan Biotech). The ventral portion of the mesencephalic flexure, a region of the developing brain rich in dopaminergic neurons, was used for the cell preparations.
The midbrains were dissociated by trypsinisation for 20 min at 37° C. […] The cells were seeded in supplemented neurobasal medium at a density of 40 000 cells/well in 96 well-plates pre-coated with poly-L-lysine (Batch 3102256, Corning Biocoat) and maintained in a humidified incubator at 37° C. in 5% CO2/95% air atmosphere. Half of the medium was changed every 2 days with fresh medium.
On day 6 of culture, the medium was removed and fresh medium was added, without or with MPP+ at 4 μM diluted in control medium and let for 48 h. In parallel, compound CR777B and withaferin A were solved in culture medium and then pre-incubated with mesencephalic neurons 1 hour before the MPP+ application (48 h).
48 hours after intoxication, the cell culture supernatant was taken off and the dopaminergic neurons were fixed by a solution of 4% paraformaldehyde in PBS, pH=7.3 for 20 min at room temperature.
After permeabilization with 0.1% of saponin (Merck, France), cells were incubated for 2 hours with monoclonal Anti-Tyrosine Hydroxylase (TH) antibody produced in mouse at dilution of 1/10000 in PBS containing 1% FCS, 0.1% saponin, for 2 h at room temperature.
The immunolabeled cultures were automatically examined with ImageXpress (Molecular Devices, United Kingdom) equipped with a LED at ×10 magnification. […] All images were taken with the same conditions. Analysis were automatically performed by using Custom Module Editor (Molecular Devices).
Data were expressed in percentage of control conditions (no injury, no compound=100%). All values were expressed as mean+/−SEM (standard error mean) of the 6 wells with statistical analyses on the different conditions (ANOVA followed by Dunnett's test when allowed, using GraphPad Prism software).

[5] = tested on: Human MRC-5 cell line derived from normal lung tissue; experiment: Cell growth inhibition by MTS assay (cytotoxicity); format: cell-based; settings: MRC5, 72 h of incubation, triplicate
Experimental: (§1) Human MRC-5 cell line derived from normal lung tissue and human HCT-116 colorectal carcinoma were obtained from the American Type Culture Collection (ATCC, Rockville, Md.). Cell lines were cultured according to the supplier's instructions. Human HCT-116 cells were grown in Gibco McCoy's 5A supplemented with 10% fetal calf serum (FCS) and 1% glutamine. Human MRC-5 cells were grown in DMEM supplemented with 10% fetal calf serum (FCS) and 1% glutamine.
(§2) Cells were counted using a Vi-cell XR (Beckman Coulter) and their viability assessed by 0.25% trypan blue dye exclusion. They were tested for the presence of mycoplasma before experiments with the Mycoplasma PCR Detection Kit (Applied Biological Materials Inc., Canada) in accordance with the manufacturer instructions and only mycoplasma-free cells were used for further investigations.
(§3) Cell lines were maintained at 37° C. in a humidified atmosphere containing 5% CO2. Cell growth inhibition was determined by an MTS assay according to the manufacturer's instructions (Promega, Madison, Wis., USA). […] After 24 h of culture, the cells were treated with the compound CR777B of example 1 or with the withaferine at 8 different final concentrations. Each concentration was obtained from serial dilutions in culture medium starting from the stock solution. Control cells were treated with the vehicle. Experiments were performed in triplicate.
(§4) After 72 h of incubation, 20 μL of CellTiter 96® AQueous One Solution Reagent was added for 2 h before recording absorbance at 490 nm with a spectrophotometric plate reader. The dose-response curves were plotted with Graph Prism software and the IC50 values were calculated using the Graph Prism software from polynomial curves (four or five-parameter logistic equations).

[6] = tested on: human HCT-116 colorectal carcinoma; experiment: Cell growth inhibition by MTS assay (cytotoxicity); format: cell-based; settings: for IC50: Homo sapiens, HCT-116, MTS assay, 72 h of incubation, triplicate, read-out: IC50 mM HCT116
Experimental: as §1, §2, §3, §4

[7] = added 1 h before glutamate (40 μM, 20 min) and let for 48 h
[8] = added 1 h before glutamate (5 μM, 20 min)
[9] = after 12 or 18 days of incubation
[10] = added 1 h before MPP+ (4 μM) and let for 48 h

CC1=C(CO)C(=O)O[C@@H]([C@@H](C)[C@H]2CC[C@H]3[C@@H]4C[C@H]5O[C@]56[C@@H](O)C=CC(=O)[C@]6(C)[C@H]4CC[C@]23C)C1 [Withaferin A, (4β,5β,6β,22R)-4,27-Dihydroxy-5,6:22,26-diepoxyergosta-2,24-diene-1,26-dione]
protection of neurons from death [1, 7]: did not protect neurons from death | toxicity for MN ([2]; MN injured by glutamate (5 μM, 20 min)): toxic for MN injured by glutamate | protective effect on motor neurons [2, 8]: did not show a protective effect; also recorded: did not show any neuroprotective effect | conclusion: effect on OPC and OL [3]: toxic for OPC and OL at all doses | number of OL [3, 9]: significant decrease of the number of OL | toxicity / OPC proliferation [3, 9]: large toxic and/or inhibition of the OPC proliferation | toxicity for TH positive neurons ([4]; MPP+ 4 μM, 48 h, highest doses): toxic for TH positive neurons at the highest doses | neuroprotective effect on TH positive neurons [4, 10]: did not show any neuroprotective effect | neuroprotective effect on TH positive neurons ([4]; added 1 h before MPP+ (4 μM) and let for 48 h, listed as withaferin A): did not show any effect | IC50 [5]: 0.00025 mM | IC50 [6]: 0.00037 mM

C[n+]1ccc(-c2ccccc2)cc1 [MPP+, 1-methyl-4-phenyl pyridinium]
TH positive neuron cell death ([4]; MPP+ 4 μM, 48 h): > 35%

CC1=C(CO)C(=O)O[C@@H]([C@@H](C)[C@H]2CCC3C4C[C@H]5O[C@]56[C@@H](O)C(SC[C@H](NC(=O)CC[C@@H](N)C(=O)O)C(=O)NCC(=O)O)CC(=O)[C@]6(C)C4CC[C@@]32C)C1 (some centres unmarked) [CR777B]
concentration with toxicity on neurite network [1, 7]: 10 µM | MN protective effect at the 2 highest doses ([2]; 2 highest doses (1 and 10 μM), glutamate 5 μM, 20 min): inactive | concentration of maximal MN protective effect (bell shape curve) ([2]; added 1 h before glutamate (5 μM, 20 min), then 48 h): 100 nM | protective effect on motor neurons [2, 8]: significant protective effect at all doses (except at the 2 highest doses) | conclusion: effect on OPC and OL [3]: significantly increase the number of OPC and OL | OPC number (A2B5 positive cells) ([3]; after 12 days of incubation): significant increase of OPC | concentration of maximal effect on OPC number (bell shape curve) ([3]; after 12 days of incubation): 100 pM | total number of OPCs at the highest doses ([3]; after 12 days of incubation, highest doses): decrease of the total number of OPCs | myelination of neurons by OL (MAG expression) ([3]; after 18 days of treatment): significantly improved the myelination of neurons by OL | number of MAG positive cells (OL) ([3]; after 18 days of treatment): increase the number of MAG positive cells | concentrations with toxic effect on TH positive neurons [4, 10]: 10 µM | neuroprotective effect on TH positive neurons [4, 10]: significant protective effect (neuron survival and preservation of neurite network) at all doses (except at the highest dose) | IC50 [5]: 0.0036 mM | IC50 [6]: 0.00266 mM | toxicity on the cells compared with withaferin ([6]; whatever the cell line tested (HCT116 and MRC5)): less toxic than the compound withaferin

N[C@@H](CCC(=O)O)C(=O)O [Glutamate, glutamate]
neuronal death and neurite network loss ([1]; glutamate 40 μM, 20 min): significant neuronal death and neurite network loss | motor neuron death ([2]; glutamate 5 μM for 20 min): > 30%
